In US7029870B1 (priority 1997, dated 2006):

What was measured:
α2/β1/ε GABAA receptors [1] = target: T1, α2/β1/ε GABAA receptors (Homo sapiens, UniProt P18505+P47869+P78334, S102A); settings: α2/β1/ε subunits
T1 sequence (P47869 29-451): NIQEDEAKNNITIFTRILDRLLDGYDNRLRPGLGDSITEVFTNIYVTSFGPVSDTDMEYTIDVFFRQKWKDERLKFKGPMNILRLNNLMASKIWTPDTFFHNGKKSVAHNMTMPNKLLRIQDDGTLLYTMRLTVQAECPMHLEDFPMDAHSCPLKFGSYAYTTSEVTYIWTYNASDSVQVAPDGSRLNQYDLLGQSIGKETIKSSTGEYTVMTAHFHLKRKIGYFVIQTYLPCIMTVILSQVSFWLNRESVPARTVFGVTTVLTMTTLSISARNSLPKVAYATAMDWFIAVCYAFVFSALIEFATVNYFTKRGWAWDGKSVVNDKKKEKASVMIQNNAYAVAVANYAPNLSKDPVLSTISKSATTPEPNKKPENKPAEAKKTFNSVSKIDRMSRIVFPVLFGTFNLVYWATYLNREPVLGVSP
T1 sequence (P18505 26-474): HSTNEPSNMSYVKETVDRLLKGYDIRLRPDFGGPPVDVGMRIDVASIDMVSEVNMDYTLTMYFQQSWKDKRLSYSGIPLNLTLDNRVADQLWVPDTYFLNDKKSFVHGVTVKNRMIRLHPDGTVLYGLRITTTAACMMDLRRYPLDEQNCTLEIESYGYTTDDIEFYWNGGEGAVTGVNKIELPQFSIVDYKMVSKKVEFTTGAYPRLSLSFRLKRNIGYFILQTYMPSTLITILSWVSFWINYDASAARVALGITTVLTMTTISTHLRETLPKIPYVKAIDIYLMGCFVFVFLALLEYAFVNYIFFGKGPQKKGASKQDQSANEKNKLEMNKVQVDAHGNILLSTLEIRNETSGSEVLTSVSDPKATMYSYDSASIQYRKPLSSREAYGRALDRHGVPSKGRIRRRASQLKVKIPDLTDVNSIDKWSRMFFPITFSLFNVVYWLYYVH
T1 sequence (P78334 23-506 S102A): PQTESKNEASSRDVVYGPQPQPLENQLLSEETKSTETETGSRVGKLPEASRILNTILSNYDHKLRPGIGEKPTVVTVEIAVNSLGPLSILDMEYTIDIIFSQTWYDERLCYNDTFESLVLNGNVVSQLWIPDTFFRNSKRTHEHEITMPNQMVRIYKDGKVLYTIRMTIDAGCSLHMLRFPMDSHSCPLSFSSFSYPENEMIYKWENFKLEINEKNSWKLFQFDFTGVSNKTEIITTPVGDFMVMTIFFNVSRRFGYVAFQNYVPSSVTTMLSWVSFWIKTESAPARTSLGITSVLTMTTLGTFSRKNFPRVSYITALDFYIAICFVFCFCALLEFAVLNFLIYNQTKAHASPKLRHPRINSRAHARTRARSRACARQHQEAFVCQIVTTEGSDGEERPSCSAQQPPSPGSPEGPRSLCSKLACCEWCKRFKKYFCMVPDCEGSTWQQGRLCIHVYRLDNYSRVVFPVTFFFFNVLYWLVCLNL

α2/β1/ε GABAA receptors [2] = target: T1, α2/β1/ε GABAA receptors; assay type: cell-based; parameters: The ε-subunit open reading frame was amplified from a hippocampal cDNA library; expressed in transfected cells; host or cells: HEK-293 (transient, calcium phosphate); settings: for Block of GABA-evoked currents: inhibitor 10 μM, bath applied
α/β/ε GABAA receptors = assay: Benzodiazepine radioligand binding to membranes of cells transfected with α-, β- and ε-subunits; parameters: species or system human, rat; settings: radioligand 1–50 nM
α1/β3/ε GABAA receptors = target: T2, α1/β3/ε GABAA receptors (UniProt P28472+P62813+P78334, S102A); parameters: species or system rat α1, human β3, human ε; settings: α1/β3/ε subunits; read-out: Maximal stimulation of [3H]muscimol binding to cell membranes
T2 construct: The ε-subunit open reading frame was amplified from a hippocampal cDNA library; expressed in transfected cells; host or cells: HEK-293 (transient, calcium phosphate); membranes prepared from the transfected cells

[3] = test system: α/β/ε GABAA receptors (α2/β1/ε or α1/β3/ε)

Molecule: 5α-pregnan-3α-ol-20-one [pregnanolone]
- Effect on [35S]TBPS binding (α2/β1/ε GABAA receptors [1]): no stimulatory phase
- Effect on submaximal GABA-activated currents (α2/β1/ε GABAA receptors [2]; concentrations up to 100 nM, α2/β1/ε): No significant effects
- Potentiation of submaximal GABA-activated currents (α2/β1/ε GABAA receptors [2]; high concentrations of the steroid, α2/β1/ε): up to 73%

Molecule: NCCCC(=O)O [GABA, γ-aminobutyric acid]
- Reversal potential of GABA-evoked currents (α2/β1/ε GABAA receptors [2]; 100 μM GABA, α2/β1/ε, linear fit): 5.7 mV
- Hill slope of GABA concentration-response (α2/β1/ε GABAA receptors [2]; α2/β1/ε cDNAs): 1.1

Molecule: CCOC(=O)c1ncn2c1CN(C)C(=O)c1cc(F)ccc1-2 [[^3H]flumazenil, flumazenil]
- Binding to transfected cell membranes (α/β/ε GABAA receptors): did not bind

Molecule: CN1C(=O)CN=C(c2ccccc2F)c2cc([N+](=O)[O-])ccc21 [[^3H]flunitrazepam, flunitrazepam]
- Binding to transfected cell membranes (α/β/ε GABAA receptors): did not bind

Molecule: CN1CCc2cc3c(cc2[C@H]1[C@@H]1OC(=O)c2c1ccc1c2OCO1)OCO3 [bicuculline]
- Block of GABA-evoked currents (α2/β1/ε GABAA receptors [2]; α2/β1/ε): 73.6±9.3%

Molecule: CCCC(C)C1(CC)C(=O)NC(=O)NC1=O (stereo not drawn) [pentobarbital]
- Emax (α1/β3/ε GABAA receptors): < 15%
- Enhancement of GABA-evoked currents [3]: blocked the ability

Molecule: CC(C)c1cccc(C(C)C)c1O [propofol, 2,6-diisopropylphenol]
- Enhancement of GABA-evoked currents [3]: blocked the ability

Molecule: picrotoxin
- Block of GABA-evoked currents (α2/β1/ε GABAA receptors [2]; α2/β1/ε): 82.5±7.4%
